Values joined by “and” are separate entries in the source; they are usually repeats but may differ in a detail not shown here. Identical values can stand only once. Like-named read-outs stand apart in the source and are kept apart here.
Legend:
[1] = Plasma pharmacokinetics of KBGY constituents in rats after single oral administration of KBGY; type: in vivo, rat
Procedure: KBGY prepared in water was administered orally to 16 h fasted rats at a dose of 2 g/10 mL/kg (n = 3). […] Plasma was obtained by centrifugation at 1700× g for 15 min at 4 °C and stored at −80 °C until analysis.
For quantification of the dicarboxylic acid, 50 µL of standard solution, 100 µL of acetic acid (2%, v/v), and 650 µL of ethyl acetate were added to 200 µL of plasma samples, followed by mixing and centrifugation (7000× g, 5 min). The supernatants were collected and dried with a centrifugal evaporator and concentration system (CC-105; TOMY SEIKO Co., Tokyo, Japan). The residue was dissolved with 100 µL acetonitrile and 50 µL BF3/butanol solution; the dissolved solution was incubated for 1 h at 60 °C. The reaction was terminated by the addition of 50 µL of water and hexane, 150 µL of a saturated solution of sodium chloride, and 400 µL of hexane. The solution was vortexed for 2 min, and the supernatant was obtained by centrifugation (7000× g, 5 min). Liquid–liquid extraction was repeated twice. The corrected supernatant was dried with the centrifugal evaporator and concentration system. The dried residue was dissolved in 100 µL of acetonitrile containing 1 µg/mL of o-terphenyl (Tokyo Chemical Ind. Co.) as an internal standard (IS). Five microliters of the solution was then injected into the GC/MS system.
For quantification of volatile organic compounds (cinnamaldehyde, methyl cinnamate, 2-methoxycinnamaldehyde, mandelonitrile, salicylaldehyde, eugenol, cinnamyl alcohol, and 3-phenylpropyl acetate), 25 µL of standard solution, 25 µL of 2 µg/mL of 1,4-dibromobenzene (Tokyo Chemical Ind. Co.) as IS, and 500 µL of acetonitrile were added to 200 µL of plasma samples, followed by mixing and centrifugation (7000× g, 5 min). Five microliters of the supernatant was then injected into the GC/MS system.
For quantification of other compounds, 25 µL of standard solution, 25 µL of 2 ng/mL of atropine sulfate monohydrate (Wako Pure Chemical Ind.) or niflumic acid (Sigma-Aldrich) as IS, and 750 µL of methanol were added to 200 µL of plasma samples, followed by mixing and centrifugation (7000× g, 5 min). The supernatant was obtained and dried with the centrifugal evaporator and concentration system after 150 µL of propylene glycol (1%, v/v) was added to the supernatant. The dried residue was then dissolved in 60 μL of the HPLC mobile phase for each analytical method, and a 10 or 20 μL portion was injected into the LC/MS/MS system.
Plasma pharmacokinetic data were analyzed by noncompartmental modeling using Phoenix WinNonlin (version 6.3, Certara L.P., St. Louis, MO, USA) to determine various pharmacokinetic constants, including the maximum concentration (Cmax), time to maximum concentration (tmax), apparent elimination half-life (t1/2), and area under the plasma concentration-time curve from zero to last observation time (AUC0–last). The t1/2 was divided by loge^2/ke, where ke was the terminal elimination (at least three data points on the descending linear limb) rate constant.

[2] = Lipid hydroperoxide (LPO) generation assay (linoleic acid, Fenton reaction); type: biochemical
Procedure: Antioxidant assays using linoleic acid with a purity of 98.0% (Wako Pure Chemical Ind.) were performed using a described protocol with modifications. Briefly, 20 μL of 1% linoleic acid in methanol, 20 μL of 20 mmol/L ferrous chloride in water, 20 μL of test sample in DMSO, and 150 μL of a mixed solution (1:1) of methanol and 20 mmol/L phosphate buffer (pH 7.0) were added to 96-well polypropylene plates. After incubation at room temperature in the dark for 1 h, 10 μL of the reaction products were transferred to 200 μL of a methanol solution containing 39 mmol/L ammonium thiocyanate, 0.2 mmol/L ferrous chloride, and 0.01 mol/L hydrochloride. After incubation for 15 min, absorbance at 500 nm was measured using a microplate reader (Multiskan GO, Thermo Fisher Scientific Inc., Waltham, MA, USA). The concentration of lipid hydroperoxide (LPO) products was calculated conveniently using standard curves of serially-diluted linolein hydroperoxides (Cayman Chemical). The percentage of control was calculated using the following formula; (A − B)/(C − B) × 100, with A = test sample, B = linoleic acid alone, and C = vehicle control. Ascorbic acid was used as a reference agent.

[3] = ROS scavenging assay (hydrogen peroxide-dependent oxidation); type: biochemical; conditions: for IC50: concentration-dependency, Figure 4
Procedure: Hydrogen peroxide-dependent oxidation tests were performed using Oxiselect™ In Vitro ROS/RNS Assay kits (Cellbiolab Inc., San Diego, CA, USA) according to the manufacturer’s protocol. Briefly, a test sample was mixed with hydrogen peroxide (final concentration: 2.5 μmol/L) and incubated for 5 min. A fluorescent reaction was started by the addition of a fluorescent probe (dichrolodihydrofluorescin-DiOxyQ) at room temperature. After incubation for 15 min, relative fluorescent units (RFUs) were measured at […] using a fluorescent plate reader (Infinite M200; Tecan Trading AG, Männedorf, Switzerland). The percentage of control was calculated using the following formula; (A − B)/(C − B) × 100, with A = test sample, B = fluorescent probe alone, and C = vehicle control. (+)-Ascorbic acid was used as a reference agent.

[4] = 10 μmol/L, more than 100% = no activity
[5] = 1 μmol/L, C.I. = complete inhibition
[6] = 10 μmol/L, C.I. = complete inhibition, more than 100% = no activity
[7] = rat plasma, single oral KBGY 2 g/kg
[8] = in vivo, rat plasma, single oral KBGY 2 g/kg, read-out: tmax

Structure (SMILES) | Tmax ([1]; rat, in vivo, po, 2 g/kg) [h] | AUC(0-t) ([1]; rat, in vivo, po, 2 g/kg) [ng·h/mL] | Cmax ([1]; rat, in vivo, po, 2 g/kg) | half-life ([1]; rat, in vivo, po, 2 g/kg) [h] | Antioxidant Activity (% of Control) LPO Generation [2, 4] | anti-ROS activity ([3]; 10 μmol/L) | Antioxidant Activity (% of Control) ROS Scavenge [3, 6] | further results
COc1cc(C(=O)O)cc(O)c1O [3-O-Methylgallic acid] | 1 | 58.6 | 12.7 ng/mL and 69 nM | 6.59 |  | strong anti-ROS activity | C.I. | IC50 [3]: 744 nM
O=C1O[C@H]([C@@H](O)CO)C(O)=C1O [(+)-Ascorbic acid, reference compound] |  |  |  |  |  |  |  | Antioxidant Activity (% of Control) ROS Scavenge ([3]; 114 μmol/L, reference agent): 14.5 ± 0.6 % of Control and 20.2 ± 0.6 % of Control
O=C(O)/C=C/c1ccccc1 [(E)-Cinnamic acid] |  |  |  |  | 104.3 ± 2.3 % of Control |  | 108.7 ± 2.2 % of Control | 
C[C@]12C[C@@H](O)[C@@H]3C[C@@]1(O[C@@H]1O[C@H](CO)[C@@H](O)[C@H](O)[C@H]1O)[C@@]3(COC(=O)c1ccccc1)C(=O)O2 [Albiflorin] |  |  |  |  | 101.6 ± 2.2 % of Control |  | 104.2 ± 1.1 % of Control | AUC0–last [1, 7]: 64.9 ng·h/mL; Tmax [1, 7]: 0.5 h; t1/2 [1, 7]: 1.6 h
N#C[C@H](O[C@@H]1O[C@H](CO[C@@H]2O[C@H](CO)[C@@H](O)[C@H](O)[C@H]2O)[C@@H](O)[C@H](O)[C@H]1O)c1ccccc1 [Amygdalin] |  |  |  |  | 102.0 ± 2.1 % of Control |  | 106.4 ± 0.5 % of Control | AUC(0-t) ([1]; in vivo, rat plasma, single oral KBGY 2 g/kg, read-out: AUC0–last): 79.9 ng·h/mL; Cmax ([1]; in vivo, rat plasma, single oral KBGY 2 g/kg, read-out: Cmax): 37.7 ng/mL and 82 nM; half-life ([1]; in vivo, rat plasma, single oral KBGY 2 g/kg, read-out: t1/2 (converted)): 0.657 h; Tmax [1, 8]: 0.5 h
O=C/C=C/c1ccccc1 [Cinnamaldehyde] | 1 | 51.6 | 11.5 ng/mL and 87 nM | 5.21 | 109.8 ± 3.9 % of Control |  | 103.8 ± 1.1 % of Control | 
C=C(CC[C@@H](C(=O)O)[C@H]1[C@H](O)C[C@@]2(C)C3=CC[C@H]4C(C)(C)[C@@H](O)CC[C@]4(C)C3=CC[C@]12C)C(C)C [Dehydrotumulosic acid] |  |  |  |  | 97.4 ± 3.1 % of Control |  | 106.0 ± 0.4 % of Control | AUC(0-t) ([1]; rat plasma, single oral KBGY 2 g/kg, read-out: AUC0–last): 39.5 ng·h/mL; Cmax ([1]; rat plasma, single oral KBGY 2 g/kg, read-out: Cmax): 15.5 ng/mL and 32 nM; half-life ([1]; rat plasma, single oral KBGY 2 g/kg, read-out: t1/2 (converted)): 3.81 h; Tmax ([1]; rat plasma, single oral KBGY 2 g/kg, read-out: tmax): 0.5 h
O=C(O)c1cc(O)c(O)c(O)c1 [Gallic acid] |  | 172 | 84.9 ng/mL and 499 nM | 0.772 | 74.0 ± 2.5 % of Control | strong anti-ROS activity | 14.5 ± 0.7 % of Control | Tmax [1, 8]: 0.5 h; Antioxidant Activity (% of Control) LPO Generation ([2]; 10 μmol/L, more than 100% = no activity, listed as gallic acid): less than 80 % of Control; Inhibition of LPO generation ([2]; 3 and 10 μmol/L, Figure 4): significantly inhibited LPO generation; ROS scavenging activity (% control) ([3]; 0.313 μmol/L): 71.1 % control; IC50 [3]: 954 nM

Second part, led by results:

Tmax ([1]; rat, in vivo, po, 2 g/kg) [h] | AUC(0-t) ([1]; rat, in vivo, po, 2 g/kg) [ng·h/mL] | Cmax ([1]; rat, in vivo, po, 2 g/kg) | half-life ([1]; rat, in vivo, po, 2 g/kg) [h] | Structure (SMILES) | Antioxidant Activity (% of Control) LPO Generation [2, 4] | anti-ROS activity ([3]; 10 μmol/L) | Antioxidant Activity (% of Control) ROS Scavenge [3, 6] | further results
0.25 |  |  |  | COc1cc([C@H]2OC[C@H]3[C@@H]2CO[C@@H]3c2cc(OC)c(O)c(OC)c2)cc(OC)c1O (racemic) [(±)-Syringaresinol] | 68.4 ± 3.3 % of Control | strong anti-ROS activity | C.I. | AUC0–last ([1]; rat, in vivo, po, 2 g/kg): 0.0771 ng·h/mL; Antioxidant Activity (% of Control) LPO Generation ([2]; 1 μmol/L): 107.4 ± 4.2 % of Control; Antioxidant Activity (% of Control) LPO Generation ([2]; 10 μmol/L, more than 100% = no activity, listed as (±)-syringaresinol): less than 80 % of Control; Antioxidant Activity (% of Control) ROS Scavenge [3, 5]: 39.4 ± 2.4 % of Control
1 | 479 | 159 ng/mL and 863 nM | 0.906 | COc1c(O)cc(C(=O)O)cc1O [4-O-Methylgallic acid] | 105.4 ± 2.5 % of Control |  | 86.8 ± 0.2 % of Control | 
2 |  |  |  | Oc1cc(O)c2c(c1)O[C@H](c1ccc(O)c(O)c1)[C@@H](O)C2 [(+)-Catechin] | 95.4 ± 3.9 % of Control | strong anti-ROS activity | 7.3 ± 1.1 % of Control | AUC0–last ([1]; rat, in vivo, po, 2 g/kg): 65.1 ng·h/mL; IC50 [3]: 621 nM
6 | 17.1 | 14.4 ng/mL and 99 nM |  | O=C(O)CCCCC(=O)O [Adipic acid] | 103.6 ± 2.9 % of Control |  | 97.0 ± 0.9 % of Control | 
0.25 | 39.9 | 54.7 ng/mL and 291 nM |  | O=C(O)CCCCCCCC(=O)O [Azelaic acid] | 97.9 ± 4.4 % of Control |  | 100.4 ± 0.7 % of Control | 
0.5 | 2.91 | 1.03 ng/mL and 3 nM | 27.3 | OC[C@H](Cc1cccc(O)c1)[C@H](CO)Cc1cccc(O)c1 [Enterodiol] | 84.9 ± 3.1 % of Control | strong anti-ROS activity | C.I. | Antioxidant Activity (% of Control) LPO Generation ([2]; 1 μmol/L): 95.2 ± 4.4 % of Control; Antioxidant Activity (% of Control) ROS Scavenge [3, 5]: 67.6 ± 2.4 % of Control
4 | 1.33 | 1.07 ng/mL and 4 nM |  | O=C1OC[C@H](Cc2cccc(O)c2)[C@H]1Cc1cccc(O)c1 [Enterolactone] | 86.1 ± 0.9 % of Control | strong anti-ROS activity | C.I. | Antioxidant Activity (% of Control) LPO Generation ([2]; 1 μmol/L): 102.1± 2.7 % of Control; Antioxidant Activity (% of Control) ROS Scavenge [3, 5]: 81.6 ± 2.9 % of Control
4 | 5.29 | 1.21 ng/mL and 2 nM |  | C=C(CC[C@@H](C(=O)O)[C@H]1[C@H](O)C[C@@]2(C)C3=C(CC[C@]12C)[C@@]1(C)CC[C@H](OC(C)=O)C(C)(C)[C@@H]1CC3)C(C)C [Pachymic acid] |  |  |  | 

Reference: PMC6155852, “Oral Administration of the Japanese Traditional Medicine Keishibukuryogan-ka-yokuinin Decreases Reactive Oxygen Metabolites in Rat Plasma: Identification of Chemical Constituents Contributing to Antioxidant Activity” (Molecules : A Journal of Synthetic Chemistry and Natural …, 2017)
